In ChEMBL document CHEMBL5625239, “Synthesis of 1,3,5-triphenyl-1,2,4-triazole derivatives and their neuroprotection by anti-oxidative stress and anti-inflammation and protecting BBB” (Eur J Med Chem, 2023):
The source made the active and inactive calls. No cut-off for these calls is given here.

Key:
PC-12 [1] = experiment: Protection against SNP-induced cell damage in rat PC-12 cells at 10 uM pretreated with compound for 2 hrs followed by SNP addition and measured after 24 hrs by MTT assay; type: functional, cell-based; conditions: time 26.0 hrs
[2] = target: T1, Prostaglandin G/H synthase 1 (Ovis aries, UniProt P05979); experiment: Inhibition of ovine COX-1 using arachidonic acid as substrate preincubated with compound for 5 mins followed by substrate addition and measured after 2 mins by enzyme immunoassay
T1 sequence (P05979 whole entry): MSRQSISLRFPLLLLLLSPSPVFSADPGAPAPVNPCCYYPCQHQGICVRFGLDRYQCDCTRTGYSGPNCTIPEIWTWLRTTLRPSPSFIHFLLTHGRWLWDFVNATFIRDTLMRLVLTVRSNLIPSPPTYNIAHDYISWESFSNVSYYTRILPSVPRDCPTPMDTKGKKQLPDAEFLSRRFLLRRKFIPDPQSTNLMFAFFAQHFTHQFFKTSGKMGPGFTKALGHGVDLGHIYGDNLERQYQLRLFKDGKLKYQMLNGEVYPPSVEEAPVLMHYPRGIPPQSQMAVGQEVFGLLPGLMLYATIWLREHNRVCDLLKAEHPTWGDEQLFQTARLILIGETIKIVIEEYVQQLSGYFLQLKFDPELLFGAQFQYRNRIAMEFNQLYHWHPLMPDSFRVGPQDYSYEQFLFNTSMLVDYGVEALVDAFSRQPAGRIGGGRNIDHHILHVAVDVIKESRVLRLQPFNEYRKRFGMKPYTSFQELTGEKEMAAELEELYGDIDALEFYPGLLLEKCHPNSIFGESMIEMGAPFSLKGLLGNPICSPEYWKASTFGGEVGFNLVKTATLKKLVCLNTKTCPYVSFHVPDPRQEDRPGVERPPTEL

RAW264.7 [3] = experiment: Cytotoxicity against mouse RAW264.7 cells assessed as reduction in cell viability at 5 uM incubated for 24 hrs by MTT assay; type: toxicity, cell-based; conditions: raw264.7, 24 h
RAW264.7 [4] = experiment: Anti-inflammatory activity in mouse RAW264.7 cells assessed as inhibition of LPS-induced NO production preincubated with compound for 1 hrs followed by LPS stimulation and measured after 24 hrs; type: functional, cell-based; conditions: time 25.0 hrs
RAW264.7 [5] = experiment: Anti-inflammatory activity in LPS-induced mouse RAW264.7 cells assessed as reduction in PGE2 level preincubated with compound for 1 hrs followed by LPS stimulation and measured after 24 hrs by ELISA; type: functional, cell-based; conditions: time 25.0 hrs
PC-12 [6] = experiment: Neuroprotective activity against SNP-induced cell damage in rat PC-12 cells pretreated with compound for 2 hrs followed by SNP addition and measured after 24 hrs by MTT assay; type: functional, cell-based; conditions: dose 2.5-100 µM, time 26.0 hrs

Row | IC50 [2] [µM] | SMILES | Activity (PC-12 [1]) | Activity (RAW264.7 [3]) | Activity (RAW264.7 [4]) | Activity (RAW264.7 [5]) | Activity (PC-12 [6])
1 |  | COc1ccc(-c2nc(-c3ccc(OC)cc3O)n(-c3ccc(S(N)(=O)=O)cc3)n2)c(O)c1 | Active |  |  |  | 
2 | 42.3 | Cc1ccc(-c2nc(-c3ccccc3O)n(-c3ccc(S(N)(=O)=O)cc3)n2)c(O)c1 | Active | Non-Toxic | Active | Active | Dose-Dependent Effect
3 | 82.1 | CS(=O)(=O)c1ccc(-n2nc(-c3ccc(C(F)(F)F)cc3O)nc2-c2ccccc2O)cc1 | Active | Non-Toxic | Active | Active | Dose-Dependent Effect
4 |  | Cc1ccc(-c2nc(-c3ccc(C)cc3O)n(-c3ccc(S(N)(=O)=O)cc3)n2)c(O)c1 | Active |  |  |  | 
5 |  | COc1ccc(-c2nc(-c3ccccc3O)n(-c3ccccc3)n2)c(O)c1 | Active |  |  |  | 
6 |  | Oc1cc(C(F)(F)F)ccc1-c1nc(-c2ccccc2O)n(-c2ccccc2)n1 | Active |  |  |  | 
7 | 45.5 | COc1ccc(-c2nc(-c3ccccc3O)n(-c3ccc(S(N)(=O)=O)cc3)n2)c(O)c1 | Active |  |  |  | 
8 |  | COc1ccc(-c2nc(-c3ccccc3O)n(-c3ccc(S(C)(=O)=O)cc3)n2)c(O)c1 | Active |  |  |  | 
9 |  | CS(=O)(=O)c1ccc(-n2nc(-c3ccccc3O)nc2-c2ccccc2O)cc1 | Active |  |  |  | 
10 | 32.1 | NS(=O)(=O)c1ccc(-n2nc(-c3ccccc3)nc2-c2ccccc2O)cc1 | Active | Non-Toxic | Active | Active | 
11 |  | NS(=O)(=O)c1ccc(-n2nc(-c3ccc([N+](=O)[O-])cc3)nc2-c2ccccc2O)cc1 | Active |  |  |  | 
12 | 39.2 | NS(=O)(=O)c1ccc(-n2nc(-c3ccccc3O)nc2-c2ccccc2O)cc1 | Active | Non-Toxic | Active | Active | Dose-Dependent Effect
13 |  | NS(=O)(=O)c1ccc(-n2nc(-c3ccc([N+](=O)[O-])cc3O)nc2-c2ccccc2O)cc1 | Active |  |  |  | 
14 | 20 | COc1cccc(-c2nc(-c3ccccc3O)n(-c3ccc(S(N)(=O)=O)cc3)n2)c1O | Active |  |  |  | 
15 |  | COc1ccc(-c2nc(-c3ccccc3OC(C)=O)n(-c3ccccc3)n2)c(OC(C)=O)c1 | Active |  |  |  | 
16 |  | COc1ccc(-c2nc(-c3ccccc3O)n(-c3ccc(S(N)(=O)=O)cc3)n2)cc1 | Active |  |  |  | 
17 |  | NS(=O)(=O)c1ccc(-n2nc(-c3ccc(Cl)cc3O)nc2-c2ccc(Cl)cc2O)cc1 | Active |  |  |  | 
18 |  | NS(=O)(=O)c1ccc(-n2nc(-c3ccc(F)cc3O)nc2-c2ccccc2O)cc1 | Active |  |  |  | 
19 | 43.4 | NS(=O)(=O)c1ccc(-n2nc(-c3ccc(C(F)(F)F)cc3)nc2-c2ccccc2O)cc1 | Active | Non-Toxic | Active | Active | 
20 | 41.6 | NS(=O)(=O)c1ccc(-n2nc(-c3ccc(F)cc3)nc2-c2ccccc2O)cc1 | Active | Non-Toxic | Active | Active | 
21 | 25.6 | NS(=O)(=O)c1ccc(-n2nc(-c3ccc(Cl)cc3O)nc2-c2ccccc2O)cc1 | Active |  |  |  | 
22 |  | CC(=O)Oc1cc(C(F)(F)F)ccc1-c1nc(-c2ccccc2OC(C)=O)n(-c2ccccc2)n1 | Active |  |  |  | 
23 | 12.8 | COc1ccc(O)c(-c2nc(-c3ccccc3O)n(-c3ccc(S(N)(=O)=O)cc3)n2)c1 | Active |  |  |  | 
24 |  | Oc1ccccc1-c1nc(-c2ccccc2O)n(-c2ccccc2)n1 | Active |  |  |  | 
25 |  | NS(=O)(=O)c1ccc(-n2nc(-c3ccc(C(F)(F)F)cc3O)nc2-c2ccc(C(F)(F)F)cc2O)cc1 | Active |  |  |  | 
26 |  | CC(=O)Oc1ccccc1-c1nc(-c2ccccc2OC(C)=O)n(-c2ccccc2)n1 | Active |  |  |  | 
